Results: patent publication US12241099B2, “Peptide therapeutics for treating Alzheimer's disease and related conditions” (The Board of Regents of the University of Oklahoma, priority 2018, dated 2025)
Residues, ends and D or L forms follow the SMILES beside them.

Legend:
Aβ1-42 [1] = target: T1, Aβ1-42 (Homo sapiens, UniProt P05067); test: ELISA binding of Aβ1-42 to plate-coated neutrophil proteins and derived peptides; conditions: 150 nM Aβ1-42; plate coated with protein/peptide at 5 μg/ml; no protease inhibitor
Protocol: CAP37, NE, and CG were purified from human neutrophils and purchased from Athens Research and Technology. BSA was from Sigma Aldrich. CAP37-derived peptides were synthesized by CS Bio Co with a purity >95%. Maxisorp plates from Nunc were coated with 100 μl neutrophil protein, peptide, or BSA diluted at 5 μg/ml in PBS with or without 1 mM PMSF purchased from Sigma Aldrich (for experiments with CAP37, NE, and BSA) or ±125 μM chymostatin purchased from Santa Cruz (for experiments with CG and BSA). Plate coating was done at room temperature for 2 hours with shaking and then at 4° C. overnight. Plates were washed three times in PBST (PBS+0.05% tween), then blocked with 3% BSA in PBST for 1 hour at room temperature with shaking. Plates were washed 3× in PBST, and 150 nM Aβ1-42 (purchased from Bachem and reconstituted in 1 mM NaOH) was added in 0.1% BSA in PBST and incubated 70 minutes at 37° C. Plates were then washed 4 times with PBST and monoclonal mouse anti-amyloid precursor protein/amyloid beta antibody, purchased from Cell Signaling Technology was added at a 1:500 dilution in 1% BSA in PBST and incubated for 1 hour at room temperature with shaking. Plates were washed 4× in PBST and donkey anti mouse HRP-conjugated secondary antibody from Jackson ImmunoResearch Laboratories was added at 1:10,000 in PBST and incubated 1 hour at room temperature with shaking, then washed 4 times in PBST. […] Sulfuric acid (5N) was added to each well to stop the reaction, and the absorbance at 492 nm was read on a Biotek Synergy II plate reader.

[2] = system: mouse neuroblastoma cell line Neuro-2a; test: Neurotoxicity assay of Aβ1-42 fibrils/oligomers (trypan blue cell death); assay type: cell-based; conditions: oligomers formed 15 min in presence of increasing concentrations; 18 μM Aβ1-42 on cells, 24 hours
Protocol: A mouse neuroblastoma cell line Neuro-2a from ATCC was used for these experiments. Cells were grown and seeded in 96 well plates at 20,000 cells per well in complete medium (MEM α, nucleosides, no phenol red from Gibco, with 10% heat inactivated fetal bovine serum from Gibco, and penicillin/streptomycin from Lonza). At 24 hours after seeding, cells were washed with warmed MEM α, and then incubated in 90 μl MEM α+N2 Supplements+20 μl test sample (Aβ1-42 prepared as described below). Cells were incubated another 24 hours at 37° C., and then dislodged by pipetting up and down vigorously. 10 μl of cells were added to 10 μl trypan blue dye (0.4% solution) from BioRad, mixed and counted in a BioRad TC20 cell counter. The percent of living and dead cells was recorded for each well. In the case of the water and Triton X100 controls, 20 μl MEM α+N2 Supplements was added instead of the test sample and, just before counting the cells, 20 μl of medium was removed and replaced with 20 μl water or Triton X100 at a final concentration of 0.1%.
Monomeric Aβ1-42 (hexafluoroisopropanol treated Aβ1-42) from Bachem was reconstituted at 5 mM in anhydrous DMSO. Untreated Aβ1-42 from CS Bio was also used in these experiments. It was first treated with 1 mM in hexafluoroisopropanol from Sigma Aldrich, incubated 30 min at room temperature, and left open to dry in the fume hood overnight. It was then vacuum desiccated for 1 hour at room temperature. Dry films of Aβ1-42 were stored at −20° C. until use to keep it under a monomeric form. Aβ1-42 from CS Bio was also reconstituted in anhydrous DMSO at 5 mM before use.
To prepare the fibril and oligomer test samples, monomeric Aβ1-42 was placed under conditions favoring either formation of fibrils or oligomers. To form fibrils, 100 μM Aβ1-42 was added to Anaspec fibrillation buffer A±neutrophil protein, and incubated at 37° C. 24 hours before addition to the cells at a final concentration of 18 μM. Neutrophil proteins were used at Aβ/Protein ratios that led to 50% inhibition of fibrillation (IC50), previously determined for each protein in the fibrillation assay. To form oligomers, MEM α+N2 Supplements was used instead of the fibrillation buffer A±increasing concentrations of neutrophil protein or CAP37-derived peptide. Each mixture was then added to a tube containing freshly prepared Aβ1-42 in DMSO at a final concentration of 100 μM, and incubated 15 min at room temperature. These test samples were then tested on the cells at a final concentration of 18 μM.
Oligomers were formed by incubating 100 μM Aβ1-42 in MEMα+N2 Supplements at 4° C. for 3 days. […] Finally, these oligomers were added to neurons at a final concentration of 18 μM, and percent cell death was measured at 24 h.

Aβ1-42 [3] = target: T1, Aβ1-42; test: Amyloid Beta (1-42) Thioflavin T fibrillation (aggregation) assay; assay type: biochemical; design: used to monitor the formation of Aβ1-42 peptide fibrils; purchased Anaspec
Protocol: The Amyloid Beta (1-42) Thioflavin T Aggregation Kit was purchased from Anaspec and used to monitor the formation of Aβ1-42 peptide fibrils, according to the manufacturer's instructions, with some modifications. Thioflavin T dye was diluted to 250 μM in fibrillation buffer A and kept in the dark until use. […] Neutrophil proteins were tested in the absence and presence of protease inhibitors. […] Chymostatin was dissolved in DMSO and used at 125 μM final concentration in reactions with CG. Reactions were pipetted up and down twice in the wells with a multichannel pipette to ensure mixing, and fluorescence (ΔEX=440 nm, ΔEm=485 nm) was read every 5 minutes for 3 hours on a BioTek Synergy 2 plate reader with Gen 5 software, with a sensitivity set at 65.

Aβ1-42 [4] = target: T1, Aβ1-42; test: Enzyme activity assay (cleavage of Aβ1-42, MALDI-TOF); assay type: biochemical; design: used to monitor the formation of Aβ1-42 peptide fibrils; purchased Anaspec
Protocol: Aβ1-42 treated with hexafluoroisopropanol was purchased from Bachem and reconstituted in anhydrous DMSO at 5 mM. Reactions were set up with increasing concentrations of enzyme (CAP37, NE or CG) and 10 μM Aβ1-42 substrate in PBS, and incubated at 37° C. for 1 hour. Reactions were stopped by the addition of acetonitrile and trifluoroacetic acid (TFA) to final concentrations of 7.5% and 0.5% respectively. Internal standard (Aβ40-1 from Bachem) dissolved in 10% acetic acid was added to a final concentration of 8 μg/ml. A 10 μl aliquot of this mixture was desalted on a C18 OMIX tip from Agilent Technologies. First, the C18 resin was rinsed with 2×10 μl of 50% methanol, then 2×10 μl of equilibration buffer (5% acetonitrile 0.5% TFA), then the sample was applied to the resin by pipetting 10 times through the resin, which was then washed twice with equilibration buffer and eluted with 75% acetonitrile 0.1% TFA.
Desalted samples were analyzed by Matrix Assisted Laser Desorption/Ionization-Time of Flight mass spectrometry (MARLDI-TOF) using a Bruker Ultraflex II instrument and Flex Control Software. […] Chromatographs were analyzed with Flex Analysis software. […] The ratio of the Aβ1-42 peak intensity divided by the internal standard peak intensity was calculated for each spot, and triplicate spots were averaged to determine the amount of uncleaved Aβ in each enzymatic reaction.

T1 sequence (P05067 672-713 limits assumed): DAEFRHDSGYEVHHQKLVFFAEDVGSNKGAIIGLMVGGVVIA

## CC(C)C[C@H](NC(=O)[C@H](CCCNC(=N)N)NC(=O)CNC(=O)CNC(=O)[C@H](CO)NC(=O)[C@H](CCCNC(=N)N)NC(=O)[C@H](Cc1c[nH]c2ccccc12)NC(=O)[C@H](CO)NC(=O)CNC(=O)[C@H](Cc1c[nH]c2ccccc12)NC(=O)CNC(=O)[C@H](C)NC(=O)[C@@H](NC(=O)[C@H](CCC(N)=O)NC(=O)[C@H](CS)NC(=O)[C@H](CCCNC(=N)N)NC(=O)[C@@H](NC(=O)CN)[C@@H](C)O)C(C)C)C(=O)N[C@@H](CO)C(=O)N[C@@H](CCCNC(=N)N)C(=O)N[C@@H](Cc1ccccc1)C(=O)N1CCC[C@H]1C(=O)N[C@@H](CCCNC(=N)N)C(=O)N[C@@H](Cc1ccccc1)C(=O)N[C@H](C(=O)N[C@@H](CC(N)=O)C(=O)N[C@H](C(=O)O)C(C)C)C(C)C [120-146 WR] (H-GTRCQVAGWGSWRSGGRLSRFPRFVNV-OH; N-terminus and C-terminus assumed)
Aβ1-42 [1]
  binding of Aβ1-42: binds
[2]
  effect on Aβ1-42 oligomer toxicity: significantly inhibited
Aβ1-42 [3]; at time of complete fibrillation of Aβ1-42 control, no protease inhibitor
  IC50: ~1000 nM
Aβ1-42 [3]; increasing concentrations of peptide, Rfu
  inhibition of Aβ1-42 fibrillation (in words): able to inhibit fibrillation
Aβ1-42 [3]; ratio at IC50
  molar ratio inhibitor/Aβ1-42 corresponding to IC50 of fibrillation: 1/10
Aβ1-42 [4]
  enzymatic activity on Aβ1-42: do not have enzymatic activities
